Experimental data from ChEMBL document CHEMBL4813919, “Development of programmable gemcitabine-GnRH pro-drugs bearing linker controllable "click" oxime bond tethers and preclinical evaluation against prostate cancer” (Eur J Med Chem, 2021).
Where a SMILES comes first, the peptide text is derived from it. [ ]: non-standard residue; d: D form. The star is where a group is joined. ξ: configuration not given here. X1 = Nc1ccn(C2OC(COC(=O)CO/N=C/C(=O)*)C(O)C2(F)F)c(=O)n1; X2 = O=C(CO/N=C/C(=O)*)Nc1ccn(C2OC(CO)C(O)C2(F)F)c(=O)n1; X3 = Nc1ccn(C2OC(CO)C(OC(=O)CO/N=C/C(=O)*)C2(F)F)c(=O)n1; ξAla(indol-2-yl) = NC(Cc1cc2ccccc2[nH]1)C(=O)O; pGlu = O=C1CC[CH](C(=O)O)N1

Columns and labels:
[1] = Drug uptake in human DU-145 cells assessed as release of gemcitabine at 10 uM measured upto 8 hrs by LC-MS/MS method; type: ADME, cell-based; details: du-145, 8 h
[2] = Drug uptake in human DU-145 cells at 10 uM measured upto 8 hrs by LC-MS/MS method; type: ADME, cell-based; details: du-145, 8 h
[3] = Drug metabolism in human plasma assessed as release of gemcitabine at 1 ug/ml measured after 4 hrs by LC-MS/MS method; type: ADME, cell-free; details: dose 1 µg/ml
[4] = Stability in human plasma at 1 ug/ml measured after 4 hrs by LC-MS/MS method; type: ADME, cell-free; details: at 1 µg/mL
[5] = Drug metabolism in human DU-145 cells assessed as release of gemcitabine at 1 uM measured after 24 hrs by LC-MS/MS method; type: ADME, cell-based; details: du-145, 24 h
[6] = Stability in human DU-145 cells at 1 uM measured upto 10 hrs by LC-MS/MS method; type: ADME, cell-based; details: du-145, 10 h
DU-145 = assay: Antiproliferative activity against human DU-145 cells measured after 72 hrs by MTT assay; type: functional, cell-based; details: DU-145, 72 h
PC-3 = assay: Antiproliferative activity against human PC-3 cells measured after 72 hrs by MTT assay; type: functional, cell-based; details: PC-3, 72 h
[7] = In vivo agonist activity at GnRH-R in C57BL6/N mouse assessed as release of testosterone in blood at 483.6 ug/kg, ip measured after 2 hrs by LC-MS/MS analysis; type: functional; details: dose 483.6 µg/kg
[8] = In vivo agonist activity at GnRH-R in C57BL6/N mouse assessed as release of testosterone in blood at 105.2 ug/kg, ip measured after 2 hrs by LC-MS/MS analysis; type: functional; details: dose 105.2 µg/kg
[9] = Drug uptake in C57BL/6N mouse blood at 10 mg/kg, IP measured after 30 mins of dosing by LC-MS/MS analysis; type: ADME, organism-based; details: whole blood, read-out: Drug uptake
[10] = In vivo agonist activity at GnRH-R in C57BL6/N mouse assessed as release of testosterone in blood at 639.21 ug/kg, ip measured after 2 hrs by LC-MS/MS analysis; type: functional; details: dose 639.21 µg/kg
[11] = Metabolic stability in mouse liver microsomes assessed as GOXG1-met2 formation at 6.13 uM incubated for 1 hr by LC-MS analysis; type: ADME, Microsome
[12] = Metabolic stability in human liver microsomes assessed as GOXG1-met2 formation at 6.13 uM incubated for 1 hr by LC-MS analysis; type: ADME, Microsome
[13] = Prodrug conversion in mouse C57BL/6N assessed as gemcitabine release at 10 mg/kg, IP measured after 15 mins by LC-MS/MS analysis; type: ADME, organism-based; details: in vivo, 0.25 h
[14] = Prodrug conversion in mouse C57BL/6N assessed as gemcitabine release at 10 mg/kg, IP measured after 30 mins by LC-MS/MS analysis; type: ADME, organism-based; details: in vivo, 0.5 h
[15] = Prodrug conversion in mouse C57BL/6N assessed as gemcitabine release at 10 mg/kg, IP measured 1 to 2.5 hrs by LC-MS/MS analysis; type: ADME, organism-based; details: in vivo, time 1-2.5 hrs
[16] = target: T1, Gonadotropin-releasing hormone receptor (Homo sapiens, UniProt P30968); assay: Displacement of [125I]-DTrp6-LHRH from human GnRH-R by radioligand binding assay
T1 sequence (P30968 whole entry): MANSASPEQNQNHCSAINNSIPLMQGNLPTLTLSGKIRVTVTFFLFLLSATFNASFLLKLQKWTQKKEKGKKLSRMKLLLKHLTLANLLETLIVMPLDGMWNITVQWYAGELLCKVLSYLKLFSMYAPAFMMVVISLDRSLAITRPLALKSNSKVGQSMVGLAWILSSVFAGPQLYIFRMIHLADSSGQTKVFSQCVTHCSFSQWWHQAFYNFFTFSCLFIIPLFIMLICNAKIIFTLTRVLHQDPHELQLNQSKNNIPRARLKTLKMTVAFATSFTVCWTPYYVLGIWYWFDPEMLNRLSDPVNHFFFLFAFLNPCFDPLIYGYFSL

SMILES | Drug uptake [1] | Drug uptake [2] | Drug metabolism [3] | Stabilty [4] | Stabilty [5] | Stabilty [6] | IC50 (DU-145) | IC50 (PC-3) | Activity [7] | Activity [8] | concentration at 0.5 h [9] | Activity [10] | Drug metabolism [11] | Drug metabolism [12] | Drug metabolism [13] | Drug metabolism [14] | Drug metabolism [15] | IC50 [16]
CC(C)CC(NC(=O)C(CCCCNC(=O)/C=N/OCC(=O)Nc1ccn(C2OC(CO)C(O)C2(F)F)c(=O)n1)NC(=O)C(Cc1ccc(O)cc1)NC(=O)C(CO)NC(=O)C(Cc1cc2ccccc2[nH]1)NC(=O)C(Cc1c[nH]cn1)NC(=O)C1CCC(=O)N1)C(=O)NC(CCCNC(=N)N)C(=O)N1CCCC1C(=O)NCC(N)=O (stereo unspecified) ([pGlu]H[ξAla(indol-2-yl)]SYK(X2)LRPG-NH2; configuration not given here) | Active | Active | Metabolite_Detected | Stable | Stable | Stable | 590 nM | 833 nM |  |  |  |  |  |  |  |  |  | 
CCNC(=O)[C@@H]1CCCN1C(=O)[C@H](CCCNC(=N)N)NC(=O)[C@H](CC(C)C)NC(=O)[C@@H](CC(C)C)NC(=O)[C@H](Cc1ccc(O)cc1)NC(=O)[C@H](CO)NC(=O)[C@H](Cc1c[nH]c2ccccc12)NC(=O)[C@H](Cc1c[nH]cn1)NC(=O)[C@@H]1CCC(=O)N1 [LEUPROLIDE] |  |  |  |  |  |  |  |  | 40.9 ng/mL |  |  |  |  |  |  |  |  | 
Nc1ccn([C@@H]2O[C@H](CO)[C@@H](O)C2(F)F)c(=O)n1 [GEMCITABINE] |  |  |  |  |  |  | 399 nM | 546 nM |  | 0.3 ng/mL | 685 ng/mL |  |  |  |  |  |  | 
CC(C)CC(NC(=O)C(CCCCNC(=O)/C=N/OCC(=O)OC1C(CO)OC(n2ccc(N)nc2=O)C1(F)F)NC(=O)C(Cc1ccc(O)cc1)NC(=O)C(CO)NC(=O)C(Cc1cc2ccccc2[nH]1)NC(=O)C(Cc1c[nH]cn1)NC(=O)C1CCC(=O)N1)C(=O)NC(CCCNC(=N)N)C(=O)N1CCCC1C(=O)NCC(N)=O (stereo unspecified) ([pGlu]H[ξAla(indol-2-yl)]SYK(X3)LRPG-NH2; configuration not given here) | Active | Active | Metabolite_Detected | Unstable | Unstable | Unstable | 494 nM | 675 nM |  |  |  |  |  |  |  |  |  | 
CC(C)CC(NC(=O)C(CCCCNC(=O)/C=N/OCC(=O)OCC1OC(n2ccc(N)nc2=O)C(F)(F)C1O)NC(=O)C(Cc1ccc(O)cc1)NC(=O)C(CO)NC(=O)C(Cc1cc2ccccc2[nH]1)NC(=O)C(Cc1c[nH]cn1)NC(=O)C1CCC(=O)N1)C(=O)NC(CCCNC(=N)N)C(=O)N1CCCC1C(=O)NCC(N)=O (stereo unspecified) ([pGlu]H[ξAla(indol-2-yl)]SYK(X1)LRPG-NH2; configuration not given here) | Active | Active | Metabolite_Detected | Stable | Stable | Stable | 611 nM | 754 nM |  |  |  | 40.1 ng/mL | Metabolite_Detected | Metabolite_Detected | 406 ng/mL | 385 ng/mL | 600 ng/mL | 1.9 nM
